Assay results reported in article PMC6979384, “Characterization of the plant homeodomain (PHD) reader family for their histone tail interactions” (Epigenetics & Chromatin, 2020).
Where no end group is shown, it is not given here.

Tests used:
Experiment in all cases: Histone peptide microarray
Assay type in all cases: binding, human
AIRE (PP) = details: AIRE (PP), GST-tagged; arrays performed twice, n of 4
Excerpt: (§1) To more comprehensively define the histone interactions of the 31 PHD readers identified from the domain microarray analyses, we probed each on an alternate microarray platform containing a library of 293 synthetic histone peptides with single or combinatorial PTMs (Additional file 2: Figure S4 and Additional file 3: Table S2).
(§2) The 31 GST-tagged PHD readers identified in the PHD finger domain array were expressed and purified as previously. Histone peptide arrays and peptide pulldown assays were conducted as recently described (specifically, the optimized protocol from Petell et al. for the former).
(§3) Supplementary file 13072_2020_328_MOESM3_ESM.xlsx: Additional file 3: Table S2. […] Excel Tab Peptide List is a compiled list of the entire 293 histone peptide library with amino acid sequence ranges. […] Each number corresponds to the peptide number designated in Peptide List. Excel Tab Average Signals is a compiled set of binding data: chromatin reader at 0.5 μM vs. entire 293 peptide library. Data is presented as the average and standard deviation of 4 replicates. The average signals are colored to indicate signal intensity with green being strong and white being weak/low. […] Key: red= stronger relative binding; blue = weaker relative binding. Excel Tab Array info summary is a table summarizing the domains, sequence coverage, array signal range, and noise for each of the GST-tagged readers assayed on the peptide microarrays.

BAZ2B = details: BAZ2B, GST-tagged; arrays performed twice, n of 4
Excerpt: as §1, §2, §3

BPTF (PB) = details: BPTF (PB), GST-tagged; arrays performed twice, n of 4
Excerpt: as §1, §2, §3

CHD4 (PPCC) = details: CHD4 (PPCC), GST-tagged; arrays performed twice, n of 4
Excerpt: as §1, §2, §3

CHD5 (PCC) = details: CHD5 (PCC), GST-tagged; arrays performed twice, n of 4
Excerpt: as §1, §2, §3

CHD5 (PPCC) = details: CHD5 (PPCC), GST-tagged; arrays performed twice, n of 4
Excerpt: as §1, §2, §3

DIDO1 = details: DIDO1, GST-tagged; arrays performed twice, n of 4
Excerpt: as §1, §2, §3

DPF2 (PPC2W2) = details: DPF2 (PPC2W2), GST-tagged; arrays performed twice, n of 4
Excerpt: as §1, §2, §3

ING1 = details: ING1, GST-tagged; arrays performed twice, n of 4
Excerpt: as §1, §2, §3

ING2 = details: ING2, GST-tagged; arrays performed twice, n of 4
Excerpt: as §1, §2, §3

ING3 = details: ING3, GST-tagged; arrays performed twice, n of 4
Excerpt: as §1, §2, §3

ING4 = details: ING4, GST-tagged; arrays performed twice, n of 4
Excerpt: as §1, §2, §3

ING5 = details: ING5, GST-tagged; arrays performed twice, n of 4
Excerpt: as §1, §2, §3

KDM4C (TTP) = details: KDM4C (TTP), GST-tagged; arrays performed twice, n of 4
Excerpt: as §1, §2, §3

KDM5A (1) = details: KDM5A (1), GST-tagged; arrays performed twice, n of 4
Excerpt: as §1, §2, §3

KDM5A (3) = details: KDM5A (3), GST-tagged; arrays performed twice, n of 4
Excerpt: as §1, §2, §3

KDM5B (1) = details: KDM5B (1), GST-tagged; arrays performed twice, n of 4
Excerpt: as §1, §2, §3

KDM5B (3) = details: KDM5B (3), GST-tagged; arrays performed twice, n of 4
Excerpt: as §1, §2, §3

KDM7A = details: KDM7A, GST-tagged; arrays performed twice, n of 4
Excerpt: as §1, §2, §3

MLL5 = details: MLL5, GST-tagged; arrays performed twice, n of 4
Excerpt: as §1, §2, §3

MORC3 (CW) = details: MORC3 (CW), GST-tagged; arrays performed twice, n of 4
Excerpt: as §1, §2, §3

PHF13 = details: PHF13, GST-tagged; arrays performed twice, n of 4
Excerpt: as §1, §2, §3

PHF21A = details: PHF21A, GST-tagged; arrays performed twice, n of 4
Excerpt: as §1, §2, §3

PHF23 = details: PHF23, GST-tagged; arrays performed twice, n of 4
Excerpt: as §1, §2, §3

PHF2 = details: PHF2, GST-tagged; arrays performed twice, n of 4
Excerpt: as §1, §2, §3

PHF8 = details: PHF8, GST-tagged; arrays performed twice, n of 4
Excerpt: as §1, §2, §3

PHRF1 (RP) = details: PHRF1 (RP), GST-tagged; arrays performed twice, n of 4
Excerpt: as §1, §2, §3

RAG2 = details: RAG2, GST-tagged; arrays performed twice, n of 4
Excerpt: as §1, §2, §3

SP140L = details: SP140L, GST-tagged; arrays performed twice, n of 4
Excerpt: as §1, §2, §3

TAF3 = details: TAF3, GST-tagged; arrays performed twice, n of 4
Excerpt: as §1, §2, §3

TRIM66 (PB) = details: TRIM66 (PB), GST-tagged; arrays performed twice, n of 4
Excerpt: as §1, §2, §3

For “H2A.Z (1-19) (N-ac): H2AZ 1-19 (Ac-AGGKAGKDSGKAKTKAVSR; UniProt P0C0S5 2-20, looked up, fragment)”, which “Array Heatmap value (peptide array binding signal)” value (“Array Heatmap value” for short) (AIRE (PP)) is on record?
Its value is 0.3861.

What about the “Array Heatmap value” value (BAZ2B) of the same substance?
Its value is 0.3915.

And the “Array Heatmap value” value (BPTF (PB))?
Its value is 0.3189.

And the “Array Heatmap value” value (CHD4 (PPCC))?
Its value is 0.5396.

What about the “Array Heatmap value” value (CHD5 (PCC)) of the same substance?
Its value is 0.7354.

What about the “Array Heatmap value” value (CHD5 (PPCC)) of the same substance?
Its value is 0.4838.

What about the “Array Heatmap value” value (DIDO1) of the same substance?
The value was 0.6117.

And the “Array Heatmap value” value (DPF2 (PPC2W2))?
The value was 0.6034.

What about the “Array Heatmap value” value (ING1) of the same substance?
The value was 0.4946.

And the “Array Heatmap value” value (ING2)?
Its value is 0.5892.

And the “Array Heatmap value” value (ING3)?
The value was 0.4524.

What about the “Array Heatmap value” value (ING4) of the same substance?
The value was 0.3991.

And the “Array Heatmap value” value (ING5)?
Its value is 0.2996.

What about the “Array Heatmap value” value (KDM4C (TTP)) of the same substance?
The value was 0.4403.

And the “Array Heatmap value” value (KDM5A (1))?
Its value is 0.3887.

What about the “Array Heatmap value” value (KDM5A (3)) of the same substance?
Its value is 0.4284.

What about the “Array Heatmap value” value (KDM5B (1)) of the same substance?
The value was 0.624.

What about the “Array Heatmap value” value (KDM5B (3)) of the same substance?
Its value is 0.4159.

And the “Array Heatmap value” value (KDM7A)?
Its value is 0.3467.

What about the “Array Heatmap value” value (MLL5) of the same substance?
The value was 0.5006.

What about the “Array Heatmap value” value (MORC3 (CW)) of the same substance?
Its value is 0.339.

What about the “Array Heatmap value” value (PHF13) of the same substance?
The value was 0.5558.

And the “Array Heatmap value” value (PHF21A)?
The value was 0.4295.

And the “Array Heatmap value” value (PHF23)?
The value was 0.4986.

And the “Array Heatmap value” value (PHF2)?
Its value is 0.4703.

What about the “Array Heatmap value” value (PHF8) of the same substance?
Its value is 0.3344.

What about the “Array Heatmap value” value (PHRF1 (RP)) of the same substance?
The value was 0.3855.

What about the “Array Heatmap value” value (RAG2) of the same substance?
The value was 0.2204.

And the “Array Heatmap value” value (SP140L)?
Its value is 0.3411.

And the “Array Heatmap value” value (TAF3)?
Its value is 0.2353.

What about the “Array Heatmap value” value (TRIM66 (PB)) of the same substance?
Its value is 0.556.

What does the source list for “H2A.Z (1-19): H2AZ 1-19 (AGGKAGKDSGKAKTKAVSR; UniProt P0C0S5 2-20, looked up, fragment)”?
Array Heatmap value (peptide array binding signal) (AIRE (PP)): 0.4876; Array Heatmap value (peptide array binding signal) (BAZ2B): 0.5259; Array Heatmap value (peptide array binding signal) (BPTF (PB)): 0.4073; Array Heatmap value (peptide array binding signal) (CHD4 (PPCC)): 0.6658; Array Heatmap value (peptide array binding signal) (CHD5 (PCC)): 0.7976; Array Heatmap value (peptide array binding signal) (CHD5 (PPCC)): 0.6481; Array Heatmap value (peptide array binding signal) (DIDO1): 0.7863; Array Heatmap value (peptide array binding signal) (DPF2 (PPC2W2)): 0.7315; Array Heatmap value (peptide array binding signal) (ING1): 0.6166; Array Heatmap value (peptide array binding signal) (ING2): 0.6115; Array Heatmap value (peptide array binding signal) (ING3): 0.5693; Array Heatmap value (peptide array binding signal) (ING4): 0.5367; Array Heatmap value (peptide array binding signal) (ING5): 0.4264; Array Heatmap value (peptide array binding signal) (KDM4C (TTP)): 0.563; Array Heatmap value (peptide array binding signal) (KDM5A (1)): 0.5328; Array Heatmap value (peptide array binding signal) (KDM5A (3)): 0.4992; Array Heatmap value (peptide array binding signal) (KDM5B (1)): 0.6378; Array Heatmap value (peptide array binding signal) (KDM5B (3)): 0.4993; Array Heatmap value (peptide array binding signal) (KDM7A): 0.3952; Array Heatmap value (peptide array binding signal) (MLL5): 0.5607; Array Heatmap value (peptide array binding signal) (MORC3 (CW)): 0.3781; Array Heatmap value (peptide array binding signal) (PHF13): 0.7054; Array Heatmap value (peptide array binding signal) (PHF21A): 0.4938; Array Heatmap value (peptide array binding signal) (PHF23): 0.5743; Array Heatmap value (peptide array binding signal) (PHF2): 0.6568; Array Heatmap value (peptide array binding signal) (PHF8): 0.402; Array Heatmap value (peptide array binding signal) (PHRF1 (RP)): 0.5374; Array Heatmap value (peptide array binding signal) (RAG2): 0.2847; Array Heatmap value (peptide array binding signal) (SP140L): 0.3948; Array Heatmap value (peptide array binding signal) (TAF3): 0.3163; Array Heatmap value (peptide array binding signal) (TRIM66 (PB)): 0.6377
